Source: patent US6358885B1, “Substituted phenylheterocyclic herbicides” (Mississippi State University, priority 1992, dated 2002)

Tests used:
Experiment in all cases: Test B preemergence/postemergence greenhouse plant response rating 0 to 10
barley = format: in vivo, Hordeum vulgare; settings: for Plant response rating, Barley: 0 to 10 scale
Method in brief: (§1)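 Both application timings were run together: seeds got compound preemergence, and established seedlings (two to eighteen cm) got it postemergence. Non-phytotoxic solvent carried the chemical. Ratings are visual, versus controls, at twelve to sixteen days.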

barnyardgrass = format: in vivo, Echinochloa crus-galli; settings: for Plant response rating, Barnyardgrass: 0 to 10 scale
Method in brief: as §1

bedstraw = format: in vivo, Galium aparine; settings: for Plant response rating, Bedstraw: 0 to 10 scale
Method in brief: as §1

blackgrass = format: in vivo, Alopecurus myosuroides; settings: for Plant response rating, Blackgrass: 0 to 10 scale
Method in brief: as §1

cheatgrass = format: in vivo, Bromus secalinus; settings: for Plant response rating, Cheatgrass: 0 to 10 scale
Method in brief: as §1

chickweed = format: in vivo, Stellaria media; settings: for Plant response rating, Chickweed: 0 to 10 scale
Method in brief: as §1

cocklebur = format: in vivo, Xanthium pensylvanicum; settings: for Plant response rating, Cocklebur: 0 to 10 scale
Method in brief: as §1

corn = format: in vivo, Zea mays; settings: for Plant response rating, Corn: 0 to 10 scale
Method in brief: as §1

cotton = format: in vivo, Gossypium hirsutum; settings: for Plant response rating, Cotton: 0 to 10 scale
Method in brief: as §1

crabgrass = format: in vivo, Digitaria spp.; settings: for Plant response rating, Crabgrass: 0 to 10 scale
Method in brief: as §1

giant foxtail = format: in vivo, Setaria faberii; settings: for Plant response rating, Giant foxtail: 0 to 10 scale
Method in brief: as §1

lambsquarters = format: in vivo, Chenopodium album; settings: for Plant response rating, Lambsquarter: 0 to 10 scale
Method in brief: as §1

morningglory = format: in vivo, Ipomoea hederacea; settings: for Plant response rating, Morningglory: 0 to 10 scale
Method in brief: as §1

rape = format: in vivo, Brassica napus; settings: for Plant response rating, Rape: 0 to 10 scale
Method in brief: as §1

rice = format: in vivo, Oryza sativa; settings: for Plant response rating, Rice: 0 to 10 scale
Method in brief: as §1

sorghum = format: in vivo, Sorghum bicolor; settings: for Plant response rating, Sorghum: 0 to 10 scale
Method in brief: as §1

soybean = format: in vivo, Glycine max; settings: for Plant response rating, Soybean: 0 to 10 scale
Method in brief: as §1

sugar beet = format: in vivo, Beta vulgaris; settings: for Plant response rating, Sugar beet: 0 to 10 scale
Method in brief: as §1

velvetleaf = format: in vivo, Abutilon theophrasti; settings: for Plant response rating, Velvetleaf: 0 to 10 scale
Method in brief: as §1

wheat = format: in vivo, Triticum aestivum; settings: for Plant response rating, Wheat: 0 to 10 scale
Method in brief: as §1

wild buckwheat = format: in vivo, Polygonum convolvulus; settings: for Plant response rating, Wild buckwheat: 0 to 10 scale
Method in brief: as §1

wild oat = format: in vivo, Avena fatua; settings: for Plant response rating, Wild oat: 0 to 10 scale
Method in brief: as §1

purple nutsedge = format: in vivo, Cyperus rotundus; settings: for Plant response rating, Nutsedge: 0 to 10 scale
Method in brief: as §1

CCOC(=O)c1cc(-c2nn3c(c2Cl)CCCC3)c(F)cc1Cl [Compound 78]
Plant response rating, Barley (barley; POSTEMERGENCE, Rate 50 g/ha): 3
Plant response rating, Barley (barley; PREEMERGENCE, Rate 50 g/ha): 2
Plant response rating (0 to 10 scale), Barley (barley; PREEMERGENCE, Rate 200 g/ha): 0
Plant response rating, Barley (barley; Rate 200 g/ha, POSTEMERGENCE): 5
Plant response rating, Barnyardgrass (barnyardgrass; POSTEMERGENCE, Rate 50 g/ha): 8
Plant response rating, Barnyardgrass (barnyardgrass; PREEMERGENCE, Rate 50 g/ha): 2
Plant response rating (0 to 10 scale), Barnyardgrass (barnyardgrass; PREEMERGENCE, Rate 200 g/ha): 6
Plant response rating, Barnyardgrass (barnyardgrass; Rate 200 g/ha, POSTEMERGENCE): 9
Plant response rating, Bedstraw (bedstraw; POSTEMERGENCE, Rate 50 g/ha): 6
Plant response rating, Bedstraw (bedstraw; PREEMERGENCE, Rate 50 g/ha): 2
Plant response rating (0 to 10 scale), Bedstraw (bedstraw; PREEMERGENCE, Rate 200 g/ha): 9
Plant response rating, Bedstraw (bedstraw; Rate 200 g/ha, POSTEMERGENCE): 9
Plant response rating, Blackgrass (blackgrass; POSTEMERGENCE, Rate 50 g/ha): 4
Plant response rating, Blackgrass (blackgrass; PREEMERGENCE, Rate 50 g/ha): 4
Plant response rating (0 to 10 scale), Blackgrass (blackgrass; PREEMERGENCE, Rate 200 g/ha): 7
Plant response rating, Blackgrass (blackgrass; Rate 200 g/ha, POSTEMERGENCE): 7
Plant response rating, Cheatgrass (cheatgrass; POSTEMERGENCE, Rate 50 g/ha): 2
Plant response rating, Cheatgrass (cheatgrass; PREEMERGENCE, Rate 50 g/ha): 2
Plant response rating (0 to 10 scale), Cheatgrass (cheatgrass; PREEMERGENCE, Rate 200 g/ha): 4
Plant response rating, Cheatgrass (cheatgrass; Rate 200 g/ha, POSTEMERGENCE): 7
Plant response rating, Chickweed (chickweed; POSTEMERGENCE, Rate 50 g/ha): 6
Plant response rating, Chickweed (chickweed; PREEMERGENCE, Rate 50 g/ha): 6
Plant response rating (0 to 10 scale), Chickweed (chickweed; PREEMERGENCE, Rate 200 g/ha): 8
Plant response rating, Chickweed (chickweed; Rate 200 g/ha, POSTEMERGENCE): 10
Plant response rating, Cocklebur (cocklebur; POSTEMERGENCE, Rate 50 g/ha): 8
Plant response rating, Cocklebur (cocklebur; PREEMERGENCE, Rate 50 g/ha): 0
Plant response rating (0 to 10 scale), Cocklebur (cocklebur; PREEMERGENCE, Rate 200 g/ha): 0
Plant response rating, Cocklebur (cocklebur; Rate 200 g/ha, POSTEMERGENCE): 10
Plant response rating, Corn (corn; POSTEMERGENCE, Rate 50 g/ha): 7
Plant response rating, Corn (corn; PREEMERGENCE, Rate 50 g/ha): 0
Plant response rating (0 to 10 scale), Corn (corn; PREEMERGENCE, Rate 200 g/ha): 0
Plant response rating, Corn (corn; Rate 200 g/ha, POSTEMERGENCE): 9
Plant response rating, Cotton (cotton; POSTEMERGENCE, Rate 50 g/ha): 9
Plant response rating, Cotton (cotton; PREEMERGENCE, Rate 50 g/ha): 0
Plant response rating (0 to 10 scale), Cotton (cotton; PREEMERGENCE, Rate 200 g/ha): 2
Plant response rating, Cotton (cotton; Rate 200 g/ha, POSTEMERGENCE): 10
Plant response rating, Crabgrass (crabgrass; POSTEMERGENCE, Rate 50 g/ha): 4
Plant response rating, Crabgrass (crabgrass; PREEMERGENCE, Rate 50 g/ha): 2
Plant response rating (0 to 10 scale), Crabgrass (crabgrass; PREEMERGENCE, Rate 200 g/ha): 8
Plant response rating, Crabgrass (crabgrass; Rate 200 g/ha, POSTEMERGENCE): 5
Plant response rating, Giant foxtail (giant foxtail; POSTEMERGENCE, Rate 50 g/ha): 4
Plant response rating, Giant foxtail (giant foxtail; PREEMERGENCE, Rate 50 g/ha): 2
Plant response rating (0 to 10 scale), Giant foxtail (giant foxtail; PREEMERGENCE, Rate 200 g/ha): 9
Plant response rating, Giant foxtail (giant foxtail; Rate 200 g/ha, POSTEMERGENCE): 6
Plant response rating, Lambsquarter (lambsquarters; POSTEMERGENCE, Rate 50 g/ha): 10
Plant response rating, Lambsquarter (lambsquarters; PREEMERGENCE, Rate 50 g/ha): 10
Plant response rating (0 to 10 scale), Lambsquarter (lambsquarters; PREEMERGENCE, Rate 200 g/ha): 10
Plant response rating, Lambsquarter (lambsquarters; Rate 200 g/ha, POSTEMERGENCE): 10
Plant response rating, Morningglory (morningglory; POSTEMERGENCE, Rate 50 g/ha): 10
Plant response rating, Morningglory (morningglory; PREEMERGENCE, Rate 50 g/ha): 0
Plant response rating (0 to 10 scale), Morningglory (morningglory; PREEMERGENCE, Rate 200 g/ha): 10
Plant response rating, Morningglory (morningglory; Rate 200 g/ha, POSTEMERGENCE): 10
Plant response rating, Rape (rape; POSTEMERGENCE, Rate 50 g/ha): 8
Plant response rating, Rape (rape; PREEMERGENCE, Rate 50 g/ha): 4
Plant response rating (0 to 10 scale), Rape (rape; PREEMERGENCE, Rate 200 g/ha): 9
Plant response rating, Rape (rape; Rate 200 g/ha, POSTEMERGENCE): 10
Plant response rating, Rice (rice; POSTEMERGENCE, Rate 50 g/ha): 3
Plant response rating, Rice (rice; PREEMERGENCE, Rate 50 g/ha): 0
Plant response rating (0 to 10 scale), Rice (rice; PREEMERGENCE, Rate 200 g/ha): 2
Plant response rating, Rice (rice; Rate 200 g/ha, POSTEMERGENCE): 6
Plant response rating, Sorghum (sorghum; POSTEMERGENCE, Rate 50 g/ha): 4
Plant response rating, Sorghum (sorghum; PREEMERGENCE, Rate 50 g/ha): 0
Plant response rating (0 to 10 scale), Sorghum (sorghum; PREEMERGENCE, Rate 200 g/ha): 3
Plant response rating, Sorghum (sorghum; Rate 200 g/ha, POSTEMERGENCE): 7
Plant response rating, Soybean (soybean; POSTEMERGENCE, Rate 50 g/ha): 10
Plant response rating, Soybean (soybean; PREEMERGENCE, Rate 50 g/ha): 0
Plant response rating (0 to 10 scale), Soybean (soybean; PREEMERGENCE, Rate 200 g/ha): 1
Plant response rating, Soybean (soybean; Rate 200 g/ha, POSTEMERGENCE): 9
Plant response rating, Sugar beet (sugar beet; POSTEMERGENCE, Rate 50 g/ha): 10
Plant response rating, Sugar beet (sugar beet; PREEMERGENCE, Rate 50 g/ha): 9
Plant response rating (0 to 10 scale), Sugar beet (sugar beet; PREEMERGENCE, Rate 200 g/ha): 10
Plant response rating, Sugar beet (sugar beet; Rate 200 g/ha, POSTEMERGENCE): 10
Plant response rating, Velvetleaf (velvetleaf; POSTEMERGENCE, Rate 50 g/ha): 10
Plant response rating, Velvetleaf (velvetleaf; PREEMERGENCE, Rate 50 g/ha): 10
Plant response rating (0 to 10 scale), Velvetleaf (velvetleaf; PREEMERGENCE, Rate 200 g/ha): 10
Plant response rating, Velvetleaf (velvetleaf; Rate 200 g/ha, POSTEMERGENCE): 10
Plant response rating, Wheat (wheat; PREEMERGENCE, Rate 50 g/ha): 3
Plant response rating (0 to 10 scale), Wheat (wheat; PREEMERGENCE, Rate 200 g/ha): 4
Plant response rating, Wheat (wheat; Rate 200 g/ha, POSTEMERGENCE): 7
Plant response rating, Wild buckwheat (wild buckwheat; POSTEMERGENCE, Rate 50 g/ha): 10
Plant response rating, Wild buckwheat (wild buckwheat; PREEMERGENCE, Rate 50 g/ha): 9
Plant response rating (0 to 10 scale), Wild buckwheat (wild buckwheat; PREEMERGENCE, Rate 200 g/ha): 10
Plant response rating, Wild buckwheat (wild buckwheat; Rate 200 g/ha, POSTEMERGENCE): 10
Plant response rating, Wild oat (wild oat; POSTEMERGENCE, Rate 50 g/ha): 3
Plant response rating, Wild oat (wild oat; PREEMERGENCE, Rate 50 g/ha): 3
Plant response rating (0 to 10 scale), Wild oat (wild oat; PREEMERGENCE, Rate 200 g/ha): 6
Plant response rating, Wild oat (wild oat; Rate 200 g/ha, POSTEMERGENCE): 5
Plant response rating, Nutsedge (purple nutsedge; POSTEMERGENCE, Rate 50 g/ha): 1
Plant response rating, Nutsedge (purple nutsedge; PREEMERGENCE, Rate 50 g/ha): 0
Plant response rating (0 to 10 scale), Nutsedge (purple nutsedge; PREEMERGENCE, Rate 200 g/ha): 0
Plant response rating, Nutsedge (purple nutsedge; Rate 200 g/ha, POSTEMERGENCE): 2
